The values below come from patent publication US10519134B2, “Pyrazole compounds and methods of making and using same” (Lundbeck La Jolla Research Center, Inc., priority 2015, dated 2019).

One assay concerns the target T1, FAAH (Mus musculus, UniProt O08914).
T1 construct: Proteomes (mouse brain membrane fraction or cell lysates); from tissue; host or cells: mouse brain membrane fraction (or cell lysates)
T1 sequence (O08914 1-579): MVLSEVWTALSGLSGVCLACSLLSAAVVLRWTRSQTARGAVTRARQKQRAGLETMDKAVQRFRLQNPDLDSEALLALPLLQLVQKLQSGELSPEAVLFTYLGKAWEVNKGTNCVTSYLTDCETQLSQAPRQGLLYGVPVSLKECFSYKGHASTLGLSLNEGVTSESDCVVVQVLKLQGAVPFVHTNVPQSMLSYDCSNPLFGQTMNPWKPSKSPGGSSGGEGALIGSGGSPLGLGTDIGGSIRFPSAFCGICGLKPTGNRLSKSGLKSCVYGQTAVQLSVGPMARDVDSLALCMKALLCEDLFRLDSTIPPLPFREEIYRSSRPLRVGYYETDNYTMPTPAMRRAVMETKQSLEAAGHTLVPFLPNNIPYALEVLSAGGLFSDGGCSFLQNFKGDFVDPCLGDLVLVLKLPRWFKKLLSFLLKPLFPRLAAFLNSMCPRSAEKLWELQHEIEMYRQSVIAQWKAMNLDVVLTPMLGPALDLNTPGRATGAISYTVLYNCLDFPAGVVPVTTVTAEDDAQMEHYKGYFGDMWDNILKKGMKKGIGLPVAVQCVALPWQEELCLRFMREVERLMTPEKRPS
In words: In vitro competitive activity-based protein profiling (mouse), FAAH gel band. The assay is classed as biochemical. The note with it: for inhibition at 1 µM: read-out: FAAH % inh. 1 μM; for IC50: mouse. In a few lines: (§1)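 Mouse brain membrane proteome or cell lysate (1.0 mg/mL protein) preincubated 30 min at 37 °C with varying inhibitor concentrations, then labelled 30 min at 37 °C with FP-Rh or HT-01 probe (50 μM stock). After SDS-PAGE, activity taken from fluorescent intensity of the MAGL and FAAH gel bands.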

For a further assay, the target named is T2, MAGL (Mus musculus, UniProt O35678).
T2 construct: Proteomes (mouse brain membrane fraction or cell lysates); from tissue; host or cells: mouse brain membrane fraction (or cell lysates)
T2 sequence (O35678 1-303): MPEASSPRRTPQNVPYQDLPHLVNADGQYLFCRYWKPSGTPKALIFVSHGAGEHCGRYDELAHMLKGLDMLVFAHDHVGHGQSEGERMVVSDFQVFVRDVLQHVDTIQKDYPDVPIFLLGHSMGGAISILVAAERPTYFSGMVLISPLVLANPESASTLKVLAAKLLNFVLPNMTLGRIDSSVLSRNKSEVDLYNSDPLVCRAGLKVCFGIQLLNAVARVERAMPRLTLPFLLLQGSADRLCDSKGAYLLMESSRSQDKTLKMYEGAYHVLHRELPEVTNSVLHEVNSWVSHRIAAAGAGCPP
In words: In vitro competitive activity-based protein profiling (mouse), MAGL gel band. The format is biochemical. The note with it: for inhibition at 1 µM: read-out: MAGL % inh. 1 μM; for IC50: mouse. In a few lines: as §1

Structures are written as SMILES.

For `CS(=O)(=O)Nc1ccn(C(=O)N2CCN(Cc3ccc(C(F)(F)F)cc3N3CCN(CC(=O)O)CC3)CC2)n1` [Example 241, 2-(4-(2-((4-(3-(methylsulfonamido)-1H-pyrazole-1-carbonyl)piperazin-1-yl)methyl)-5-(trifluoromethyl)phenyl)piperazin-1-yl)acetic acid], the inhibition at 1 µM is 0 to 25% on FAAH and 50 to 75% at MAGL.

As for `CS(=O)(=O)Nc1ccn(C(=O)N2CCN(Cc3cc(N4CCC(C(=O)O)CC4)cc(C(F)(F)F)c3)CC2)n1` [Example 242, 1-(3-((4-(3-(methylsulfonamido)-1H-pyrazole-1-carbonyl)piperazin-1-yl)methyl)-5-(trifluoromethyl)phenyl)piperidine-4-carboxylic acid], the inhibition at 1 µM at FAAH and on MAGL was 0 to 25% throughout.

For `CS(=O)(=O)Nc1ccn(C(=O)N2CCC3(CCCN3Cc3ccc(C(F)(F)F)cc3N3CCC(C(=O)O)CC3)CC2)n1` [Example 243, 1-(2-((8-(3-(methylsulfonamido)-1H-pyrazole-1-carbonyl)-1,8-diazaspiro[4.5]decan-1-yl)methyl)-5-(trifluoromethyl)phenyl)piperidine-4-carboxylic acid], the inhibition at 1 µM at FAAH and on MAGL was 0 to 25% in each case.

As for `CS(=O)(=O)Nc1ccn(C(=O)N2CCN(Cc3cc(N4CCC(C(=O)O)C4)cc(C(F)(F)F)c3)CC2)n1` (stereo not shown) [Example 244, 1-(3-((4-(3-(methylsulfonamido)-1H-pyrazole-1-carbonyl)piperazin-1-yl)methyl)-5-(trifluoromethyl)phenyl)pyrrolidine-3-carboxylic acid], the inhibition at 1 µM at FAAH and on MAGL was 0 to 25% in each case.

As for `CS(=O)(=O)Nc1ccn(C(=O)N2CCC3(CCCN3Cc3ccc(C(F)(F)F)cc3N3CCC(C(=O)O)C3)CC2)n1` (stereo not shown) [Example 245, 1-(2-((8-(3-(methylsulfonamido)-1H-pyrazole-1-carbonyl)-1,8-diazaspiro[4.5]decan-1-yl)methyl)-5-(trifluoromethyl)phenyl) pyrrolidine-3-carboxylic acid], the inhibition at 1 µM at FAAH and on MAGL was 0 to 25% throughout.

Take `CS(=O)(=O)Nc1ccn(C(=O)N2CCC3(CCCN3Cc3cc(N4CCC(C(=O)O)CC4)cc(C(F)(F)F)c3)CC2)n1` [Example 246, 1-(3-((8-(3-(methylsulfonamido)-1H-pyrazole-1-carbonyl)-1,8-diazaspiro[4.5]decan-1-yl)methyl)-5-(trifluoromethyl)phenyl) piperidine-4-carboxylic acid]: the inhibition at 1 µM at FAAH and at MAGL was 0 to 25% in each case.

Regarding `CS(=O)(=O)Nc1ccn(C(=O)N2CCC3(CCCN3Cc3cc(N4CCC(C(=O)O)C4)cc(C(F)(F)F)c3)CC2)n1` (stereo not shown) [Example 247, 1-(3-((8-(3-(methylsulfonamido)-1H-pyrazole-1-carbonyl)-1,8-diazaspiro[4.5]decan-1-yl)methyl)-5-(trifluoromethyl)phenyl)pyrrolidine-3-carboxylic acid], the inhibition at 1 µM on FAAH and on MAGL was 0 to 25% each time.

Regarding `CS(=O)(=O)Nc1ccn(C(=O)N2CCN(Cc3ccc(Cl)c(N4CCC(C(N)=O)CC4)c3)CC2)n1` [Example 249, 1-(2-chloro-5-((4-(3-(methylsulfonamido)-1H-pyrazole-1-carbonyl)piperazin-1-yl)methyl)phenyl) piperidine-4-carboxamide], the inhibition at 1 µM on FAAH and at MAGL was 0 to 25% each time.

For the molecule `CC(=O)N1CCN(c2cc(CN3CCN(C(=O)n4ccc(NS(C)(=O)=O)n4)CC3)cc(C(F)(F)F)c2)CC1` [Example 251, N-(1-(4-(3-(4-acetylpiperazin-1-yl)-5-(trifluoromethyl)benzyl)piperazine-1-carbonyl)-1H-pyrazol-3-yl) methanesulfonamide], the inhibition at 1 µM is 0 to 25% at FAAH and 25 to 50% at MAGL.

Consider `CS(=O)(=O)Nc1ccn(C(=O)N2CCN(Cc3ccc(C(F)(F)F)cc3N3CCC(O)CC3)CC2)n1` [Example 252, N-(1-(4-(2-(4-hydroxypiperidin-1-yl)-4-(trifluoromethyl)benzyl)piperazine-1-carbonyl)-1H-pyrazol-3-yl) methanesulfonamide], for which, at FAAH, the IC50 (usually the concentration needed to halve the response being measured) lay within 1 to 10 µM and the inhibition at 1 µM lay within 0 to 25%. Further, on MAGL, the IC50 was ≤ 0.1 µM and the inhibition at 1 µM is ≥ 75%.

For the molecule `CC(=O)Nc1ccn(C(=O)N2CCC3(CCCN3Cc3ccc4[nH]cnc4c3)CC2)n1` [Example 253, N-(1-(1-((1H-benzo[d]imidazol-5-yl)methyl)-1,8-diazaspiro[4.5]decane-8-carbonyl)-1H-pyrazol-3-yl)acetamide], the results for the inhibition at 1 µM on FAAH and on MAGL were 0 to 25% and 50 to 75%, respectively.

With `CS(=O)(=O)Nc1ccn(C(=O)N2CCN(Cc3cc(N4CCN(S(C)(=O)=O)CC4)cc(C(F)(F)F)c3)CC2)n1` [Example 254, N-(1-(4-(3-(4-(methylsulfonyl)piperazin-1-yl)-5-(trifluoromethyl)benzyl)piperazine-1-carbonyl)-1H-pyrazol-3-yl) methanesulfonamide], the inhibition at 1 µM lay in the range of 0 to 25% on FAAH and 25 to 50% at MAGL.

With `CS(=O)(=O)Nc1ccn(C(=O)N2CCC3(CCCN3Cc3ccc(C(F)(F)F)cc3N3CCN(S(C)(=O)=O)CC3)CC2)n1` [Example 255, N-(1-(1-(2-(4-(methylsulfonyl)piperazin-1-yl)-4-(trifluoromethyl)benzyl)-1,8-diazaspiro[4.5]decane-8-carbonyl)-1H-pyrazol-3-yl) methanesulfonamide], the inhibition at 1 µM at FAAH and at MAGL was 0 to 25% in each case.

As for `CS(=O)(=O)Nc1ccn(C(=O)N2CCN(Cc3ccc(Cl)cc3N3CC4CCC(C3)O4)CC2)n1` [Example 256, N-(1-(4-(2-(8-oxa-3-azabicyclo[3.2.1]octan-3-yl)-4-chlorobenzyl)piperazine-1-carbonyl)-1H-pyrazol-3-yl) methanesulfonamide], on FAAH, the IC50 fell in the range of 1 to 10 µM and the inhibition at 1 µM fell in the range of 0 to 25%. For the same molecule, on MAGL, the IC50 is ≤ 0.1 µM and the inhibition at 1 µM is ≥ 75%.

With `CS(=O)(=O)Nc1ccn(C(=O)N2CCN(Cc3cc(N4CCOCC4)ccc3Cl)CC2)n1` [Example 258, N-(1-(4-(2-chloro-5-morpholinobenzyl)piperazine-1-carbonyl)-1H-pyrazol-3-yl) methanesulfonamide], the inhibition at 1 µM at FAAH and at MAGL was 0 to 25% throughout.

As for `CS(=O)(=O)Nc1ccn(C(=O)N2CCN(Cc3ccc(C(F)(F)F)cc3-c3nnn[nH]3)CC2)n1` [Example 259, N-(1-(4-(2-(1H-tetrazol-5-yl)-4-(trifluoromethyl)benzyl)piperazine-1-carbonyl)-1H-pyrazol-3-yl) methanesulfonamide], the inhibition at 1 µM on FAAH lay in the range of 0 to 25%; at MAGL, 50 to 75%.

In the case of `CS(=O)(=O)Nc1ccn(C(=O)N2CCN(Cc3ccc(Cl)c(-c4nnco4)c3)CC2)n1` [Example 260, N-(1-(4-(4-chloro-3-(1,3,4-oxadiazol-2-yl)benzyl)piperazine-1-carbonyl)-1H-pyrazol-3-yl) methanesulfonamide], the figures for the inhibition at 1 µM at FAAH and on MAGL were 0 to 25% and ≥ 75%, respectively.

With `CS(=O)(=O)Nc1ccn(C(=O)N2CCN(Cc3ccc(Cl)c(-c4ncon4)c3)CC2)n1` [Example 261, N-(1-(4-(4-chloro-3-(1,2,4-oxadiazol-3-yl)benzyl)piperazine-1-carbonyl)-1H-pyrazol-3-yl) methanesulfonamide], the inhibition at 1 µM on FAAH was 0 to 25%; at MAGL, ≥ 75%.

On to `CC(C)C(=O)Nc1ccn(C(=O)N2CCN(Cc3ccc(C(F)(F)F)cc3N3CCCC3)CC2)n1` [Example 263, N-(1-(4-(2-(pyrrolidin-1-yl)-4-(trifluoromethyl)benzyl)piperazine-1-carbonyl)-1H-pyrazol-3-yl)isobutyramide], for which, on FAAH, the IC50 is 1 to 10 µM and the inhibition at 1 µM fell in the range of 0 to 25%. Further, at MAGL, the IC50 was in the range of 0.1 to 1 µM and the inhibition at 1 µM was ≥ 75%.

As for `CS(=O)(=O)Nc1ccn(C(=O)N2CCC3(CCCN3Cc3ccc(Cl)cc3N3CCOCC3)CC2)n1` [Example 264, N-(1-(1-(4-chloro-2-morpholinobenzyl)-1,8-diazaspiro[4.5]decane-8-carbonyl)-1H-pyrazol-3-yl) methanesulfonamide], the inhibition at 1 µM at FAAH is 0 to 25%; on MAGL it was 25 to 50%.
